# In patent US6951855B2, “Benzoxazinone derivatives for use in the treatment of angiogenesis” (AstraZeneca AB, priority 2001, dated 2005):
row,Structure (SMILES),melting point
1,"COc1ccc(Oc2ccc3c(c2)OCC(=O)N3)cc1 [Example 1, 7-(4-Methoxyphenoxy)-2H-1,4-benzoxazin-3(4H)-one]",163 to 164 °C
2,"Nc1ccccc1Oc1ccc2c(c1)OCC(=O)N2 [Example 18, 7-(2-Aminophenoxy)-2H-1,4-benzoxazin-3(4H)-one]",149 to 150 °C
3,"Nc1cccc(Oc2ccc3c(c2)OCC(=O)N3)c1 [Example 17, 7-(3-Aminophenoxy)-2H-1,4-benzoxazin-3(4H)-one]",209 to 210 °C
4,"COc1ccc(Nc2ccc3c(c2)OCC(=O)N3)cc1 [Example 14, 7-(4-Methoxyanilino)-2H-1,4-benzoxazin-3(4H)-one]",174 to 175 °C
5,"O=C1COc2cc(SCc3ccccc3)ccc2N1 [Example 9, 7-Benzylsulfanyl-2H-1,4-benzoxazin-3(4H)-one]",154 to 155 °C
6,"CC(=O)Nc1ccc(Oc2ccc3c(c2)OCC(=O)N3)cc1 [Example 19, 7-(4-Acetylaminophenoxy)-2H-1,4-benzoxazin-3(4H)-one]",230 to 232 °C
7,"O=C1COc2cc(SCc3ccc(O)cc3)ccc2N1 [Example 13, 7-(4-Hydroxybenzylsulfanyl)-2H-1,4-benzoxazin-3(4H)-one]",207 to 209 °C
8,"Nc1cccc(Sc2ccc3c(c2)OCC(=O)N3)c1 [Example 5, 7-[(3-Aminophenyl)sulfanyl]-2H-1,4-benzoxazine-3(4H)-one]",181 to 182 °C
9,"Nc1ccccc1Sc1ccc2c(c1)OCC(=O)N2 [Example 4, 7-[(2-Aminophenyl)sulfanyl]-2H-1,4-benzoxazin-3(4H)-one]",204 to 205 °C
10,"O=C1COc2cc(Sc3ccc(O)c(O)c3)ccc2N1 [Example 8, 7-[(3,4-Dihydroxyphenyl)sulfanyl]-2H-1,4-benzoxazin-3(4H)-one]",236 to 238 °C
11,"O=C1COc2cc(Nc3ccc(O)cc3)ccc2N1 [Example 15, 7-(4-Hydroxyanilino)-2H-1,4-benzoxazin-3(4H)-one]",270 to 275 °C
12,"Nc1ccc(Sc2ccc3c(c2)OCC(=O)N3)cc1 [Example 3, 7-[(4-Aminophenyl)sulfanyl]-2H-1,4-benzoxazin-3(4H)-one]",232 to 234 °C
13,"O=C1COc2cc(Sc3ccc(O)cc3)ccc2N1 [Example 6, 7-[(4-Hydroxyphenyl)sulfanyl]-2H-1,4-benzoxazin-3(4H)-one]",224 to 225 °C
14,"COc1ccc(Sc2ccc3c(c2)OCC(=O)N3)cc1OC [Example 7, 7-[(3,4-Dimethoxyphenyl)sulfanyl]-2H-1,4-benzoxazin-3(4H)-one]",170 to 171 °C
15,"O=C1COc2cc(Oc3ccc(O)cc3)ccc2N1 [Example 2, 7-(4-Hydroxyphenoxy)-2H-1,4-benzoxazin-3(4H)-one]",250 to 251 °C
